Laboratory results published in US9873725B2, “Mimetic peptides which modulate L-type calcium channels” (CONSIGLIO NAZIONALE DELLE RICERCHE, priority 2014, dated 2018).
Where no end group is shown, it is not given here.

Experiments:
Cavα1.2 [1] = experiment: Western blot of Cavα1.2 protein degradation in peptide-treated cells, serum removal; type: cell-based
Description: (§1) a) Western blotting analysis of Cavα1.2 and GAPDH protein levels of total protein lysates; b) Intracellular Ca^2+fluxes; (c) Molecular modeling and docking of a peptide (SEQ ID NO:2, dark grey) to TID region (SEQ ID NO:10, light grey) of Cavβ2.; (d) Western blotting analysis of Cavα1.2 and GAPDH protein levels of total protein lysates; (e) Confocal analyses of adult cardiomyocytes treated with TAT-MP- and TAT-scramble-and stained with di 8-ANEPPS dye. MP=SEQ ID NO:3, scramble=SEQ ID NO:11. (f) Western blotting analysis of Cavα1.2 and GAPDH protein levels of total protein lysates from HEK293 cells treated with increasing doses of MP; (g) Ca^2+ current measurements in tSA-201 cells previously transfected. For Western blotting analyses, HEK293 or tSA-201 cells transfected or treated as indicated. Protein levels were normalized to GAPDH. (n=4). Data are shown as the means±SEM; *, P<0.05, **, P<0.005; ***, P<0.001.
(§2) To facilitate the intracellular uptake, a cell-penetrating peptide (CPP) was conjugated to the MP (SEQ ID NO: 3). […] Thus, the trans-activating transcriptional activator (TAT) from Human Immunodeficiency Virus 1 (HIV-1) was used. […] TAT-MP=SEQ ID NO: 3; TAT-scramble=scramble=SEQ ID NO:11.

iPSC-CM beating clusters = experiment: Ca2+ handling in iPSC-CM beating clusters treated with Akt-inhibitor; type: cell-based, human; details: iPSC-CM beating clusters co-treated with Akt-inhibitor
Description: (§3) Based on this, we next performed functional analyses and examined the iPSC-CM beating clusters (BCs) for Ca^2+ handling properties. […] On the other hand, no effects were observed when BCs were co-treated with scramble.

LTCCs = experiment: Confocal analysis of co-localization with LTCCs in isolated adult cardiomyocytes; type: cell-based
Description: as §1, §2

Cavα1.2 [2] = experiment: Western blot of Cavα1.2 protein levels in iPSC-CMs subjected to an Akt inhibitor; type: cell-based, human; details: iPSC-CMs co-treated with Akt inhibitor
Description: (a) Western blotting analysis of Cavα1.2 and GAPDH protein levels of total protein lysates from cardiomyocytes (CMs) differentiated from induced pluripotent stem cells (iPSCs) and previously derived from skin fibroblasts of healthy individuals. (n=4) Cells were untreated or treated with an Akt-inhibitor. MP=SEQ ID NO:3, scramble=SEQ ID NO:11.
as §3

LTCC = target: T1, LTCC (Homo sapiens, UniProt Q08289); experiment: Ca2+ current measurements in tSA-201 cells, serum removal; type: cell-based
T1 construct: expressed in transfected cells; host or cells: tSA-201
T1 sequence (Q08289 whole entry): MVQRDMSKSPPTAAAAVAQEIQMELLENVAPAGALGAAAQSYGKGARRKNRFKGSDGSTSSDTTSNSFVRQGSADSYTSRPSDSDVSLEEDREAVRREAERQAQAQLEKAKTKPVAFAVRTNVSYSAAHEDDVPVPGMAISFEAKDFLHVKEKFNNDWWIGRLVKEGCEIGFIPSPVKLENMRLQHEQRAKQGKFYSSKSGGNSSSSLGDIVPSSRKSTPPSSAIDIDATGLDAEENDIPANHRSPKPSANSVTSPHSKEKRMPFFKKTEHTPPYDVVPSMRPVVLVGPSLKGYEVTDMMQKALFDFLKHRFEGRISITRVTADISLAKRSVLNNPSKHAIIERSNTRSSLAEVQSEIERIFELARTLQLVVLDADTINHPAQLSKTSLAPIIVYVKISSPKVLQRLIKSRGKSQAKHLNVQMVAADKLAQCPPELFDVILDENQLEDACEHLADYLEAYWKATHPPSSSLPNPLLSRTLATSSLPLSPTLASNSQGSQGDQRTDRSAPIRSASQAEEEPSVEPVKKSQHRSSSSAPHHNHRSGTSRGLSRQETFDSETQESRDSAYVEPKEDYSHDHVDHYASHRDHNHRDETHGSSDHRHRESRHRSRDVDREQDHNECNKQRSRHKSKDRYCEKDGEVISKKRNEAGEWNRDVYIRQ
T1 sequence (Q13936 whole entry partner): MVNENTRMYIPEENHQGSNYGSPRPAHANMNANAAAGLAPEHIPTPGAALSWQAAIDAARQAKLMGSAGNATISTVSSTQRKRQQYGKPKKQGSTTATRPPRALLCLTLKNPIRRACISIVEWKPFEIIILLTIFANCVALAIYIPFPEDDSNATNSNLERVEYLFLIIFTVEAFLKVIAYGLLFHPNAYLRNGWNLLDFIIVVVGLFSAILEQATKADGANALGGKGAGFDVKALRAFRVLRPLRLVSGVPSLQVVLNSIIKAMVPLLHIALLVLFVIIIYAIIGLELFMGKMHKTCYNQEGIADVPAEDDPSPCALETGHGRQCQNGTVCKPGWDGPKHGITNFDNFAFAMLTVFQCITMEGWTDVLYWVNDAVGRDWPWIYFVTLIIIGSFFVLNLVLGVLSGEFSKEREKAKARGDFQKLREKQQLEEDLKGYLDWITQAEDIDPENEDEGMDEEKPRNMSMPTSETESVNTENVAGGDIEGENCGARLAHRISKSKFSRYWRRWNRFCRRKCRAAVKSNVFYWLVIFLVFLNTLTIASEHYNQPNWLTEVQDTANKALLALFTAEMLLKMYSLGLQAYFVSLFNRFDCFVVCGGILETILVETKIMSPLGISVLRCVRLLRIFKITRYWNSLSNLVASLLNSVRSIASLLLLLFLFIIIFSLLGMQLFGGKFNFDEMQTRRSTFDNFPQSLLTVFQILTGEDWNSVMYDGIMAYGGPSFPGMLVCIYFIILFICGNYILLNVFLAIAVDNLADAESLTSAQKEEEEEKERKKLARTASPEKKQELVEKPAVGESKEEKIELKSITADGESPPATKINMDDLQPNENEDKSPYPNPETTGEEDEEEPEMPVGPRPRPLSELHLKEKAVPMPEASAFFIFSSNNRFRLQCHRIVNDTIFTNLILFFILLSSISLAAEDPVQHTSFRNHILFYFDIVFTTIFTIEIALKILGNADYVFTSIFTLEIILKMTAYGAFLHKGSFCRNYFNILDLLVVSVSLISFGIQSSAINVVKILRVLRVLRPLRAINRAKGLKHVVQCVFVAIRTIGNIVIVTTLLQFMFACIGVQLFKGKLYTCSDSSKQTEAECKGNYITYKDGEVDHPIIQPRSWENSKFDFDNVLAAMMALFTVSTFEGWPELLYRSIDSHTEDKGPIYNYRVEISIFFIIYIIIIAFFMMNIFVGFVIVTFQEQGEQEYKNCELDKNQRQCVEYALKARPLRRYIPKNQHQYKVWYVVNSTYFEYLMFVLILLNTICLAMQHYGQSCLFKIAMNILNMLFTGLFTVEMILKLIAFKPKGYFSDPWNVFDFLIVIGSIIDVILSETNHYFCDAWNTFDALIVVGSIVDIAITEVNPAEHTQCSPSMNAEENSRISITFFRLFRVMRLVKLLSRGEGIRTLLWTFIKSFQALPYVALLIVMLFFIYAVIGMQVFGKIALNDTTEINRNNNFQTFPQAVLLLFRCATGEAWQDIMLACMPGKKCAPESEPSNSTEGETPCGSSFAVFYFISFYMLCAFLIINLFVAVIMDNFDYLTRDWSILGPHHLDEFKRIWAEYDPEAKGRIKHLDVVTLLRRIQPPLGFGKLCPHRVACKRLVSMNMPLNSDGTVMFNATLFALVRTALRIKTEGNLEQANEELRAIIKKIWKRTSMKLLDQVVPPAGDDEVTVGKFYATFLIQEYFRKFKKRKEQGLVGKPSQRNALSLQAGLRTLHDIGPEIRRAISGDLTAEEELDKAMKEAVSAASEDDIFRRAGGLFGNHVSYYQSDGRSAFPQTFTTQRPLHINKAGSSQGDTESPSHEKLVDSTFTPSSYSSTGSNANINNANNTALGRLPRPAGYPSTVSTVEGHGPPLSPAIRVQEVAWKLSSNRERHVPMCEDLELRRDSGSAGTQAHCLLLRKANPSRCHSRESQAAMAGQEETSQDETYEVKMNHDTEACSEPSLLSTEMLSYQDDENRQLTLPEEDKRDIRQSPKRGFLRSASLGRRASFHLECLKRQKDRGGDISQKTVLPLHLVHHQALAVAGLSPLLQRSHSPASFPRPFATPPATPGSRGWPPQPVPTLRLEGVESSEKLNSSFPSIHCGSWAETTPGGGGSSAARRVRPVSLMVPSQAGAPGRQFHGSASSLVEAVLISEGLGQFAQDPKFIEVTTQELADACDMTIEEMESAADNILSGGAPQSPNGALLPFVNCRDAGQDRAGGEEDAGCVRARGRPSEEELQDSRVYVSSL
Description: as §1, §2

pdk1 knockout mice = experiment: Genetic mouse model of heart failure (inducible cardiac specific PDK1 knockout); type: in vivo; details: for cardiac (left ventricular) function, echocardiography: PDK1 knockout mice after tamoxifen, cell penetrating peptides
Procedure: (a, top) Design of study. Echo, echocardiography. (a, bottom) Fractional shortening (%) as determined by echocardiography in pdk1 knockout mice treated with mimetic peptide (TAT-MP) or scramble (TAT-scramble). (b) Western blotting analysis of Cavα1.2 and GAPDH protein levels of total protein lysates from left ventricular homogenates. Protein levels were normalized to GAPDH. (n=4) MP=SEQ ID NO:3, scramble=SEQ ID NO:11. Tamoxifen (TAM) and peptide was injected daily as indicated. Protein levels were normalized to GAPDH.
To explore the in vivo therapeutic potential, MP was used in an inducible and cardiac specific knockout of the phosphoinositide-dependent kinase 1 (PDK1), the upstream activator of all three Akt isoforms. […] We then treated the mice with either cell penetrating MP or scramble peptides and followed the phenotype for the following days. […] MP=SEQ ID NO: 3; TAT-scramble=scramble=SEQ ID NO:11.

Cavα1.2 [3] = experiment: Western blot of Cavα1.2 protein levels in HEK293 cells transfected with peptides, serum removal; type: cell-based; details: specific mutations within either the MP or Cavα1.2
Description: as §1
Based on the evidence shown in example 1, we next investigated whether mimetic peptides (MPs) might recapitulate the mechanism by which LTCCs are protected from protein degradation by binding to the TID domain. […]

In the case of DQPPSRRDERA [scramble control peptide], the “protection of Cavα1.2 from protein degradation” value (Cavα1.2 [1]) is reported as “none of these effects were observed”, the “slowing (delay) of Ca2+ transient development” value (iPSC-CM beating clusters) is reported as “no effects” and the “co-localization with LTCCs” value (LTCCs) is reported as “none of these effects were observed”. The “downregulation of Cavα1.2 protein levels” value (Cavα1.2 [2]) was “no rescuing effects”, the “Ca2+ current” value (LTCC) was “none of these effects were observed” and the “cardiac (left ventricular) function, echocardiography” value (pdk1 knockout mice) was “progressive impairment of left ventricular function”.

With DQRPDREAPRS [MP] the “slowing (delay) of Ca2+ transient development” value (iPSC-CM beating clusters) was “sufficient for reducing this delay”, the “downregulation of Cavα1.2 protein levels” value (Cavα1.2 [2]) was “prevented” and the “protective effect on Cavα1.2 when mutations abolish the predicted MP-TID interaction” value (Cavα1.2 [3]) was “completely lost”. For the same sequence, the “cardiac (left ventricular) function, echocardiography” value (pdk1 knockout mice) was “significant attenuation of the impairment of cardiac function” and the LTCC protein levels (pdk1 knockout mice; left ventricular homogenates of PDK1 knockout mice) was “restoration of LTCC protein levels”.
